Values quoted from earlier work in patent publication EP2077109A1, “AMIDE COMPOUND, SALT THEREOF, AND BIOFILM REMOVER USING THEM” (The University of Tokyo, priority 2006, dated 2008).

Tested on: autoinducer
Conditions: statement taken from Patent Document 1 (JP 2006-512290)

In the case of `CCCCCCCCCC(=O)CC(=O)NN1CCCCC1`, the autoinducer agonist activity is listed as “exhibits autoinducer agonist activity”.
